Data as given in patent US20070142317A1, “Topical composition for treatment of skin disorders” (QLT USA, Inc., priority 2003, published 2007).
Values joined by “and” are separate entries in the source; they are usually repeats but may differ in a detail not shown here. Equal entries are not always repeated. Where two headings read alike, the source gives them in different places. Values belong to the compound of their own block, whether it stands above or below them.

Legend:
U-937 cells [1] = assay: Cytokine secretion by ELISA (Example 31); assay type: cell-based; conditions: drug 1 μM; for Cytokine Secretion IL-6 pg/ml Mean of 3 Replicates: LPS-activated cells
Experimental: In a search for a topical agent that can locally deplete levels of T-cells in the skin, apoptotic compounds were evaluated for their mechanisms of action. The ability that […] induce apoptosis by the same mechanisms was examined by cytokine secretion. […] Caspase-3 and cytokine (IL-2, IL-6, TNF, and IFN-γ) levels were determined and compared to controls at 23 and 46 hours. FdA was incorporated to evaluate the effect of the halogen group and Ara-C for its overlapping mechanisms of action. […] At the end of the treatment period, the cells were harvested and Caspase-3 induction was determined using a flow-cytometry-based method to quantify the percentage of cells that induced Caspase-3. The level of apoptosis is expressed as “% FITC shift”. Cytokine secretion (IL-2, IL-6, TNF, and IFN-γ) was measured at the same time by ELISA and is expressed in pg/mL. […]

Jurkat cells = assay: Cytokine secretion by ELISA (Example 31); assay type: cell-based; conditions: drug 1 μM; for Cytokine Secretion IL-2 pg/ml Mean of 3 Replicates: PHA-activated cells
Experimental: In a search for a topical agent that can locally deplete levels of T-cells in the skin, apoptotic compounds were evaluated for their mechanisms of action. The ability that […] induce apoptosis by the same mechanisms was examined by cytokine secretion. […] At the end of the treatment period, the cells were harvested and Caspase-3 induction was determined using a flow-cytometry-based method to quantify the percentage of cells that induced Caspase-3. The level of apoptosis is expressed as “% FITC shift”. Cytokine secretion (IL-2, IL-6, TNF, and IFN-γ) was measured at the same time by ELISA and is expressed in pg/mL.

[2] = for times safer than the oncology dose: 40 grams each day, 7% penetration
Text: (§1) Systemic absorption is a concern, because of the potential for serious adverse events, such as lymphopenia and renal toxicity. At oncology doses, these adverse reactions are usually minimized, but the therapeutic index is narrow. Another factor that plays a role in the safety of the formulation is the amount of product administered each day. Approximately 4 grams, 12 grams, and 40 grams of a topical formulation are estimated to cover 10%, 30%, and 100% of the body surface area.
as §1
as §1, with “Calculations of safety margins have been performed, based upon this assumption and the known toxicity profile of F-Ara-A when administered IV for oncology indications. Systemic” for “Systemic”
as §1

U-937 cells [3] = conditions: Niiitsu et al 2000; cited from earlier work
[4] = system: hairy cell leukemia (HCL); conditions: cited from earlier work
dGK = dGK (Homo sapiens, UniProt Q16854); conditions: read-out: Km for dGK; cited from earlier work
[5] = Calculated concentration in the skin assuming 7% penetration
monocytes = conditions: read-out: concentration that causes 50% inhibition of monocytes; cited from earlier work
[6] = system: chronic lymphocytic leukemia (CLL); conditions: 25 mg/m^2 every day for 5 days; cited from earlier work
[7] = aqueous solution, cited from earlier work
[8] = intravenous; cited from earlier work
lymphocytes = conditions: same concentration of dCF, absence of dAdo, after 4 days of exposure; cited from earlier work

Sequence of dGK (Q16854 40-277, species assumed): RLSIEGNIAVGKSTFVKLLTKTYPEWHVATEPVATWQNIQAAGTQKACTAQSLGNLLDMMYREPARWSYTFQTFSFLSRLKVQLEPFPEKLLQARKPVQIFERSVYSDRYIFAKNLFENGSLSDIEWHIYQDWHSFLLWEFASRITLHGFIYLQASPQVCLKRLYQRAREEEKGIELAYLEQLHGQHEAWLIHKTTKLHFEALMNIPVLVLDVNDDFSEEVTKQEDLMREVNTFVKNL

times safer than the oncology dose ([2]; topical 0.00001%): 23000
systemic exposure per day ([2]; topical 0.1% (1.0 mg/g), 10% BSA (4 grams), 7% systemic absorption): 0.28 mg
systemic exposure per day ([2]; topical 0.1% (1.0 mg/g), 30% BSA (12 grams), 7% systemic absorption): 0.84 mg
systemic exposure per day ([2]; topical 0.1% (1.0 mg/g), 100% BSA (40 grams), 7% systemic absorption): 2.8 mg
concentration achieved in the skin assuming 7% penetration ([5]; topical 0.00001% (0.0001 mg/g)): approximately 25 nM
Concentration in the skin assuming 7% penetration ([5]; topical concentration 0.00001%): 20 nM
Concentration in the skin assuming 7% penetration ([5]; topical concentration 0.00005%): 120 nM
Concentration in the skin assuming 7% penetration ([5]; topical concentration 0.0001%): 250 nM
Concentration in the skin assuming 7% penetration ([5]; topical concentration 0.001%): 2450 nM
Concentration in the skin assuming 7% penetration ([5]; topical concentration 0.01%): 24500 nM
Concentration in the skin assuming 7% penetration ([5]; topical concentration 0.1%): 245010 nM
SMILES: Nc1nc(Cl)nc2c1ncn2[C@H]1C[C@H](O)[C@@H](CO)O1 [CdA, 2-chloro-2′-deoxyadenosine]
Cytokine Secretion IL-6 pg/ml Mean of 3 Replicates (U-937 cells [1]; 23 hr): 7 pg/mL
effect on suppressing the production of IL-6 (U-937 cells [1]; 46 hours): little effect
Cytokine Secretion IL-6 pg/ml Mean of 3 Replicates (U-937 cells [1]; 46 hr): 8 pg/mL and 7 pg/mL
Cytokine Secretion IL-2 pg/ml Mean of 3 Replicates (Jurkat cells; 23 hr): 51 pg/mL
Cytokine Secretion IL-2 pg/ml Mean of 3 Replicates (Jurkat cells; 46 hr): 105 pg/mL
IL-2 concentration (Jurkat cells; Jurkat cells activated by PHA, 46 hours): 105 pg/mL
safety factor ([2]; 0.00005%, 30% of body surface area (10.8 grams/day), 7% systemic absorption): 17,142
safety margin (times safer than the oncology dose) ([2]; topical 0.1% (1.0 mg/g), 10% BSA (4 grams per day), 7% systemic absorption): 23
safety margin (times safer than the oncology dose) ([2]; topical 0.1% (1.0 mg/g), 30% BSA (12 grams per day), 7% systemic absorption): 7.7
safety margin (times safer than the oncology dose) ([2]; topical 0.1% (1.0 mg/g), 100% BSA (40 grams per day), 7% systemic absorption): 2.3
concentration toxic to U-937 cells on its own (U-937 cells [3]): 0.1 µM
time to responses and complete remissions ([4]; 3.6 mg/m^2 every day for 7 days): ≤ 1 week
Km (dGK): 80 µM

SMILES: Nc1nc(F)nc2c1ncn2[C@@H]1O[C@H](CO)C(O)C1O (stereo partly drawn) [F-Ara-A, 2-fluoroadenine-9β-D-Arabinofuranoside]
times safer than the oncology dose ([2]; topical 0.0002%): 8036
safety margin (times safer than the oncology dose) ([2]; topical 1.0% (10 mg/g), 10% BSA (4 grams per day), 7% systemic absorption): 16
systemic exposure per day ([2]; topical 1.0% (10 mg/g), 10% BSA (4 grams), 7% systemic absorption): 2.8 mg
safety margin (times safer than the oncology dose) ([2]; topical 1.0% (10 mg/g), 30% BSA (12 grams per day), 7% systemic absorption): 5.4
systemic exposure per day ([2]; topical 1.0% (10 mg/g), 30% BSA (12 grams), 7% systemic absorption): 8.4 mg
safety margin (times safer than the oncology dose) ([2]; topical 1.0% (10 mg/g), 100% BSA (40 grams per day), 7% systemic absorption): 1.6
systemic exposure per day ([2]; topical 1.0% (10 mg/g), 100% BSA (40 grams), 7% systemic absorption): 28 mg
IC50 (monocytes): 500 nM
time to complete remissions, on average [6]: 3 months
concentration achieved in the skin assuming 7% penetration ([5]; topical 0.0002% (0.002 mg/g)): approximately 0.5 μM

Concentration in the skin assuming 7% penetration ([5]; topical concentration 0.00001%): 30 nM
Concentration in the skin assuming 7% penetration ([5]; topical concentration 0.00005%): 130 nM
Concentration in the skin assuming 7% penetration ([5]; topical concentration 0.0001%): 260 nM
Concentration in the skin assuming 7% penetration ([5]; topical concentration 0.001%): 2610 nM
Concentration in the skin assuming 7% penetration ([5]; topical concentration 0.01%): 26090 nM
Concentration in the skin assuming 7% penetration ([5]; topical concentration 0.1%): 260930 nM
SMILES: OC[C@H]1O[C@@H](n2cnc3c2NC=NC[C@H]3O)C[C@@H]1O [dCF, (R)-3-(2-Deoxy-β-D-erythro-pentofuranosyl)-3,6,7,8-tetrahydroimidazo[4,5-d][1,3]diazepin-8-ol]
safety margin (times safer than the oncology dose) [2]: 1.8
t50 ([7]; pH 1, 25° C.): 5.6 min
t50 ([7]; pH 5.0, 25° C.): about 3.5 days
t50 ([7]; pH 7.5, 25° C.): approximately 70 days
t50 ([7]; pH 12.6, 25° C.): approximately 45 days
drug recovered in the urine [8]: Approximately 96%
growth inhibition (lymphocytes): 0-10%
time to complete remissions, on average ([4]; 4 mg/m^2 every 14 days): 6 months
